{"source": "patent US20250325517A1", "about": "“ORAL DOSAGE FORMS OF ELRAGLUSIB” (Actuate Therapeutics, Inc., priority 2022, published 2025)", "key": {"[1]": {"experiment": "Solubility of elraglusib in acetone, acetone:water and THF with and without polymers (24 h, visual and HPLC)", "assay_type": "physicochemical", "procedure": "The solubility of elraglusib API with and without polymers of interest was evaluated in acetone. […] Samples were prepared according to Table 6-13. […] Additional studies were performed to determine if an increased water content would prevent formation of the solvate precipitate and more dilute solutions were tested for potential ASD processing."}, "[2]": {"experiment": "Solubility of elraglusib in simulated intestinal fluid", "assay_type": "physicochemical", "procedure": "Solubility of elraglusib in simulated intestinal fluid with varying levels of SIF powder was measured to support formulation development, facilitate interpretation of in vitro dissolution, and support potential modeling and interpretation of in vivo pharmacokinetic data. The obtained solubility data are shown in Table 6-19 and is generally aligned with data previously collected for elraglusib."}, "[3]": {"experiment": "Quantitative solubility by HPLC in organic solvents and surfactants", "assay_type": "physicochemical", "conditions": "for solubility: thermodynamic from solid, read-out: Solubility (n = 2) by HPLC", "description": "The HPLC method 1 was used for solubility, stability monitoring at 438 nm, and drug loading measurements of the ASD is summarized in Table 2A-31 and the HPLC method 2 was used for stability monitoring at 210 nm, which is summarized in Table 2A-32."}, "in vivo": {"experiment": "in vivo", "parameters": "species or system Beagle dogs", "conditions": "male, Beagle, dog; for AUC(0-inf): AUCINF; for AUC(0-t): AUClast", "procedure": "The objective of this study was to evaluate the pharmacokinetic profile of elraglusib following single oral and intravenous doses in Beagle dogs.\nThe test article (elraglusib in a vehicle of 85% PEG400, 10% ethanol, 5% water (all components are weight/weight/weight)) was administered orally and via intravenous infusion to dogs according to the tables below.\nMale Beagle dogs were selected for use in this study. Animals were at least 6 months old and males weighed approximately 9.3-10.8 kilograms at the start of dosing.\nThe study animals received a single oral dose of elraglusib followed by an approximate 7-day washout period after which they received a single intravenous infusion of elraglusib. Animals underwent standard evaluations such as body weight and clinical observations, and were bled for pharmacokinetics following each dose.\nPlasma concentrations of elraglusib were determined for dogs treated with 20 mg/kg elraglusib via oral administration on Day 1 and then again via intravenous infusion on Day 8. […] Individual plasma concentrations were highest approximately 2-8 hours after oral administration (1,410-1,880 ng/mL), and highest at approximately 5 minutes following intravenous administration (11,800-13,600 ng/mL)."}, "[4]": {"experiment": "Solubility of elraglusib in acetone, acetone:water and THF with and without polymers (24 h, visual and HPLC)", "assay_type": "physicochemical", "remark": "listed apart in the source"}}}
{"smiles": "Cn1cc(C2=C(c3coc4ccc(F)cc34)C(=O)NC2=O)c2cc3c(cc21)OCO3", "note": "[elraglusib, 3-(5-fluorobenzofuran-3-yl)-4-(5-methyl-5H-[1,3]dioxolo[4,5-f]indol-7-yl)-1H-pyrrole-2,5-dione]", "values": [{"measurement": "visual observation", "setting": "[1]; Table 6-17 Sample 5: 1.54% w/w in 95:5 acetone:water, stirred, 21.5 hours", "result": "No change"}, {"measurement": "solubility in acetone", "setting": "[1]; crystallizes at room temperature at static conditions", "result": 4, "unit": "% w/w"}, {"measurement": "solubility at 24 h", "setting": "[1]; organic solvent or mixture, thermodynamic from solid, acetone, 24 hours, read-out: measured solubility by HPLC", "result": 13.1, "unit": "mg/mL"}, {"measurement": "Average Concentration, 2 hour", "setting": "[2]; 0.01N HCl, initial pH 2, [NaTC] 0 mM, 2 hour", "result": 2.1, "unit": "µg/mL"}, {"measurement": "Average Concentration, 24 hour", "setting": "[2]; 0.01N HCl, initial pH 2, [NaTC] 0 mM", "result": 1.4, "unit": "µg/mL"}, {"measurement": "Average Concentration, 2 hour", "setting": "[2]; 0.5% Simulated Intestinal Fluid (SIF), initial pH 6.5, [NaTC] 6.7 mM, 2 hour", "result": 6.0, "unit": "µg/mL"}, {"measurement": "Average Concentration, 24 hour", "setting": "[2]; 0.5% Simulated Intestinal Fluid (SIF), initial pH 6.5, [NaTC] 6.7 mM", "result": 4.7, "unit": "µg/mL"}, {"measurement": "Average Concentration, 2 hour", "setting": "[2]; 2% SIF, initial pH 6.5, [NaTC] 26.8 mM, 2 hour", "result": 17.0, "unit": "µg/mL"}, {"measurement": "Average Concentration, 24 hour", "setting": "[2]; 2% SIF, initial pH 6.5, [NaTC] 26.8 mM", "result": 17.3, "unit": "µg/mL"}, {"measurement": "Average Concentration, 2 hour", "setting": "[2]; Blank FaSSIF, initial pH 6.5, [NaTC] 0 mM, 2 hour", "result": 2.5, "unit": "µg/mL"}, {"measurement": "Average Concentration, 24 hour", "setting": "[2]; Blank FaSSIF, initial pH 6.5, [NaTC] 0 mM", "result": 2.6, "unit": "µg/mL"}, {"measurement": "Average Concentration, 2 hour", "setting": "[2]; Blank FeSSIF, initial pH 5, [NaTC] 0 mM, 2 hour", "result": 2.4, "unit": "µg/mL"}, {"measurement": "Average Concentration, 24 hour", "setting": "[2]; Blank FeSSIF, initial pH 5, [NaTC] 0 mM", "result": 2.6, "unit": "µg/mL"}, {"measurement": "Average Concentration, 24 hour", "setting": "[2]; FaSSIF, initial pH 6.5, [NaTC] 3 mM", "result": 5.7, "unit": "µg/mL"}, {"measurement": "solubility", "setting": "[2]; FaSSIF, pH 6.5, fassif, thermodynamic from solid, read-out: measured solubility of crystalline elraglusib", "result": 0.0057, "unit": "mg/mL"}, {"measurement": "Average Concentration, 2 hour", "setting": "[2]; FeSSIF, initial pH 5, [NaTC] 15 mM, 2 hour", "result": 8.4, "unit": "µg/mL"}, {"measurement": "Average Concentration, 24 hour", "setting": "[2]; FeSSIF, initial pH 5, [NaTC] 15 mM", "result": 11.6, "unit": "µg/mL"}, {"measurement": "pH dependence of equilibrium solubility", "setting": "[2]; simulated intestinal fluid", "result": "essentially independent of pH"}, {"measurement": "solubility thermodynamic at 2 h", "setting": "[2]; thermodynamic from solid, FaSSIF, initial pH 6.5, [NaTC] 3 mM, 2 hour, read-out: Average Concentration, 2 hour", "result": 0.0052, "unit": "mg/mL"}, {"measurement": "solubility", "setting": "[3]; DCM, no surfactant, organic solvent or mixture", "result": 15.1, "unit": "mg/mL"}, {"measurement": "solubility", "setting": "[3]; H2O with Kolliphor EL 10% w/v, aqueous with cosolvent or surfactant or cyclodextrin, H2O, Kolliphor EL 10% w/v", "result": 0.12, "unit": "mg/mL"}, {"measurement": "solubility", "setting": "[3]; H2O with Labrasol 10% w/v, aqueous with cosolvent or surfactant or cyclodextrin, H2O, Labrasol 10% w/v", "result": 0.16, "unit": "mg/mL"}, {"measurement": "solubility", "setting": "[3]; H2O with Tween 80 10% w/v, aqueous with cosolvent or surfactant or cyclodextrin, H2O, Tween 80 10% w/v", "result": 0.24, "unit": "mg/mL"}, {"measurement": "solubility", "setting": "[3]; THF (with stabilizer BHT), no surfactant, organic solvent or mixture", "result": 25.3, "unit": "mg/mL"}, {"measurement": "solubility", "setting": "[3]; THF with Kolliphor HS 15 10% w/v, organic solvent or mixture, THF, Kolliphor HS 15 10% w/v", "result": 47.6, "unit": "mg/mL"}, {"measurement": "solubility", "setting": "[3]; THF with Labrasol 10% w/v, organic solvent or mixture, THF, Labrasol 10% w/v", "result": 52.3, "unit": "mg/mL"}, {"measurement": "solubility", "setting": "[3]; THF with Poloxamer P188 10% w/v, organic solvent or mixture, THF, Poloxamer P188 10% w/v", "result": 49.8, "unit": "mg/mL"}, {"measurement": "solubility", "setting": "[3]; THF with TPGS 10% w/v, organic solvent or mixture, THF, TPGS 10% w/v", "result": 46.8, "unit": "mg/mL"}, {"measurement": "solubility", "setting": "[3]; THF with Tween 80 10% w/v, organic solvent or mixture, THF, Tween 80 10% w/v", "result": 49.8, "unit": "mg/mL"}, {"measurement": "Solubility (n = 2) by HPLC", "setting": "[3]; THF, Kolliphor EL 10% w/v", "result": 48.0, "unit": "mg/mL"}, {"measurement": "Solubility (n = 2) by HPLC", "setting": "[3]; THF, no surfactant", "result": 52.7, "unit": "mg/mL"}, {"measurement": "solubility", "setting": "[3]; THF:H2O (90:10) with Labrasol 10% w/v, organic solvent or mixture, THF:H2O (90:10), Labrasol 10% w/v", "result": 54.8, "unit": "mg/mL"}, {"measurement": "Solubility (n = 2) by HPLC", "setting": "[3]; THF:H2O (90:10), no surfactant", "result": 61.2, "unit": "mg/mL"}, {"measurement": "solubility", "setting": "[3]; acetone, no surfactant, organic solvent or mixture", "result": 13, "unit": "mg/mL"}, {"measurement": "solubility", "setting": "[3]; organic solvent or mixture, DCM:Acetone (1:1), no surfactant", "result": 19.8, "unit": "mg/mL"}, {"measurement": "solubility", "setting": "[3]; organic solvent or mixture, DCM:Acetone (5:1), no surfactant", "result": 24.5, "unit": "mg/mL"}, {"measurement": "solubility", "setting": "[3]; organic solvent or mixture, DCM:EtOH (1:1), no surfactant", "result": 16.4, "unit": "mg/mL"}, {"measurement": "solubility", "setting": "[3]; organic solvent or mixture, DCM:MeOH (8:2), no surfactant", "result": 11.8, "unit": "mg/mL"}, {"measurement": "bioavailability", "setting": "in vivo", "result": 31, "unit": "%"}, {"measurement": "AUClast, IV versus PO", "setting": "in vivo; 20 mg/kg", "result": "approximately 3 fold"}, {"measurement": "AUC", "setting": "in vivo; iv, 20 mg/kg", "result": 68900, "unit": "ng·h/mL"}, {"measurement": "highest individual plasma concentrations", "setting": "in vivo; iv, 20 mg/kg", "result": "11,800-13,600 ng/mL"}, {"measurement": "time of highest individual plasma concentrations", "setting": "in vivo; iv, 20 mg/kg", "result": "approximately 5 minutes"}, {"measurement": "AUC(0-inf)", "setting": "in vivo; iv, 20 mg/kg", "result": 72800, "unit": "ng·h/mL"}, {"measurement": "AUC(0-t)", "setting": "in vivo; iv, 20 mg/kg", "result": 68900, "unit": "ng·h/mL"}, {"measurement": "Cmax", "setting": "in vivo; iv, 20 mg/kg", "result": 12800, "unit": "ng/mL"}, {"measurement": "Tmax", "setting": "in vivo; iv, 20 mg/kg, Tmax", "result": 4.98, "unit": "min"}, {"measurement": "half-life", "setting": "in vivo; iv, 20 mg/kg, t1/2", "result": 6.05, "unit": "h"}, {"measurement": "AUC", "setting": "in vivo; po, 20 mg/kg", "result": 21300, "unit": "ng·h/mL"}, {"measurement": "highest individual plasma concentrations", "setting": "in vivo; po, 20 mg/kg", "result": "1,410-1,880 ng/mL"}, {"measurement": "time of highest individual plasma concentrations", "setting": "in vivo; po, 20 mg/kg", "result": "2 to 8", "unit": "h"}, {"measurement": "AUC(0-inf)", "setting": "in vivo; po, 20 mg/kg", "result": 22600, "unit": "ng·h/mL"}, {"measurement": "AUC(0-t)", "setting": "in vivo; po, 20 mg/kg", "result": 21300, "unit": "ng·h/mL"}, {"measurement": "Cmax", "setting": "in vivo; po, 20 mg/kg", "result": 1670, "unit": "ng/mL"}, {"measurement": "measured concentration by HPLC", "setting": "[4]; THF solution, 24 hours (theoretical 37 mg/mL)", "result": 34.68, "unit": "mg/mL"}, {"measurement": "time remaining soluble", "setting": "[4]; tetrahydrofuran (THF)", "result": "over 24 hours"}]}
